Measured values from patent US12391652B2 (priority 2019, dated 2025).

Legend:
[1] = system: blast fungus (Pyricularia oryzae); assay type: in vivo; conditions: for Efficacy (%): 50 ppm foliar spray on rice (cv; Hinohikari), 8 days outdoor, then 11 days in contact with infected rice plants, lesion area vs untreated group; for Efficacy compared to the Ra4 type crystal form: rice blast, 50 ppm
[2] = system: soybean rust fungus (Phakopsora pachyrhizi); experiment: Test Example 1: curative foliar spray against soybean rust on potted soybean; assay type: in vivo; conditions: for Efficacy (%): 2 ppm foliar spray on soybean (cv; Kurosengoku) 4 days after inoculation, lesion area 7 days after spraying vs untreated group
Procedure: Each of 5 parts of the Ra1 type crystal form, or the Ra4 type crystal form as comparison control, 35 parts of a mixture of white carbon and ammonium polyoxyethylene alkyl ether sulfate (weight ratio is 1:1) and 60 parts of water were mixed, and the mixture was then finely-ground by a wet grinding method to obtain a formulation. Water was then added to the formulation so as to be 2 ppm as the concentration of the Ra1 type crystal form or the Ra4 type crystal form to obtain dilutions respectively.
Each of plastic pots was filled with soil and thereto soybean (cv; Kurosengoku) seeds were sown and the soybeans were grown in a greenhouse for 15 days. Thereafter, an aqueous suspension of spores of soybean rust fungus (Phakopsora pachyrhizi) was spraying-inoculated. After the inoculation, the soybeans were placed under a dark and wet condition at 23° C. for 1 night and were further cultivated in a greenhouse for 3 days, and the above-mentioned diluted dilutions were sprayed to foliar parts so as to adhere adequately on the leaves of the above-mentioned soybean. After spraying the dilutions, the plants were air-dried and were placed under a dark and wet condition at only night, and after 7 days of the spraying, the lesion area was observed (lesion area in treated group).
Whereas, in the untreated group, the similar procedures to those of the treated group except that the Ra1 type crystal form or the Ra4 type crystal form were not applied, were carried out and the lesion area of soybean rust disease in the untreated group was observed (lesion area in untreated group).
From each of the lesion area in the treated group or the untreated group respectively, the efficacy in the treated group was calculated by the following “Equation 1”. Efficacy (%)=[1−(lesion area in the treated group/lesion area in the untreated group)]×100 [Equation 1]

SMILES | Efficacy (%) [1] [%] | Efficacy compared to the Ra4 type crystal form [1] | Efficacy (%) [2] [%] | Efficacy compared to the Ra4 type crystal form ([2]; soybean rust, 2 ppm)
CC1CC(C)(C)c2cccc(NC(=O)c3cn(C)nc3C(F)F)c21 (racemic) [Ra3 type crystal form, 3-(difluoromethyl)-1-methyl-N-(1,1,3-trimethyl-2,3-dihydro-1H-inden-4-yl)-1H-pyrazole-4-carboxamide] | 75 | higher efficacy compared to the Ra4 type crystal form |  | 
CC1CC(C)(C)c2cccc(NC(=O)c3cn(C)nc3C(F)F)c21 (racemic) [Ra2 type crystal form, 3-(difluoromethyl)-1-methyl-N-(1,1,3-trimethyl-2,3-dihydro-1H-inden-4-yl)-1H-pyrazole-4-carboxamide] | 85 | higher efficacy compared to the Ra4 type crystal form |  | 
CC1CC(C)(C)c2cccc(NC(=O)c3cn(C)nc3C(F)F)c21 (racemic) [Ra4 type crystal form, 3-(difluoromethyl)-1-methyl-N-(1,1,3-trimethyl-2,3-dihydro-1H-inden-4-yl)-1H-pyrazole-4-carboxamide, reference compound] | 50 |  | 54 | 
CC1CC(C)(C)c2cccc(NC(=O)c3cn(C)nc3C(F)F)c21 (racemic) [Ra1 type crystal form, 3-(difluoromethyl)-1-methyl-N-(1,1,3-trimethyl-2,3-dihydro-1H-inden-4-yl)-1H-pyrazole-4-carboxamide] |  |  | 72 | higher efficacy compared to the Ra4 type crystal form
